This is an account of results in patent US10588839B2, “Method of shaping hair” (Conopco, Inc., priority 2013, dated 2020).

Assay [1] can be described thus: Volume of hair switches by image analysis after soaking and combing, no heat treatment (Example 3). The settings on record: 30 min soak; for volume of treated hair switches: combed straight, dried; for % benefit: water as control. From the text: Control switches were soaked in water.
When dry the switches were combed straight and pictures taken.

Assay [2] is described as follows: Volume of hair switches by image analysis after soaking, ironing at 200° C. and washing (Example 1). How it is done:
Dark brown wavy #6 European hair switches were soaked for 30 minutes in solutions of 2% glyceraldehyde at its natural or spontaneous pH.
All switches were combed straight and were dried in drying cabinets. When dry the switches were ironed with 7 passes using straighteners at 200° C.
The switches were subsequently washed after 3 days with base shampoo and combed straight and dried in drying cabinets.
When dry the switches were combed and pictures taken. The volumes of the switches were measured using an image analysis kit.
If the switches are visually straight then the volume of the switches (actually the projection of the volume in mm^2 on to an image plane) is a measure of the straightness benefits of the treatment.

On to `O=CC(O)CO` (stereo not drawn) [Glyceraldehyde, glyceraldehyde], for which, in assay [1], the “volume of treated hair switches” value was 12458 mm^2 and the “% benefit” value is on record as 21.6%. In addition, the “% benefit after ironing + 1 wash” value in assay [2] (2% glyceraldehyde solution, 30 min soak, 7 iron passes at 200° C., 1 wash, versus control) worked out at 26.4%. Further, the “% benefit after ironing + 2 washes” value in assay [2] (2% glyceraldehyde solution, 30 min soak, 7 iron passes at 200° C., 2 washes, versus control) came out at 11.3%. The “Volume of treated hair switches after ironing + 2 washes” value in assay [2] (2% glyceraldehyde solution, 30 min soak, 7 iron passes at 200° C., 3 day gap between washings) amounted to 11191.17 mm^2. Also, the “Volume of treated hair switches after ironing + 1 wash” value in assay [2] (2% glyceraldehyde solution, 30 min soak, 7 iron passes at 200° C., washed after 3 days with base shampoo) is reported as 10927.15 mm^2. Further, the “straightness benefit (in words)” value in assay [2] (with heat treatment, after washing) is “durable straightness benefits”.

As for `NCCCC[C@H](N)C(=O)O` [2% Lysine, lysine], in assay [1], the “volume of treated hair switches” value was determined as 9975 mm^2 and the “% benefit” value is recorded as 37.2%.
